Three compounds from US9700633B2, “Conjugates of water soluble polymer-amino acid oligopeptide-drug, preparation method and use thereof” (JENKEM TECHNOLOGY CO. LTD., TIANJIN BRANCH, priority 2013, dated 2017) can be followed below.

One data set has as its system human colon cancer HT-29. The data set is described as follows: Xenografted tumor of human colon cancer HT-29 in nude mice. The format is in vivo, BALB/cA nude mice. The following applies: iv.
The next data set deals with human lung cancer A549. Description: Xenografted tumor of human lung cancer A549 in nude mice. As to conditions: iv. It counts as in vivo, BALB/cA nude mice.
Data set [1] deals with human ovarian cancer SKOV-3. The data set is described as follows: Xenografted tumor of human ovarian cancer SKOV-3 in nude mice. It counts as in vivo, BALB/cA nude mice. The following applies: iv; for number of animals with vanished tumor: d28, 6 mice per group.
The subject of data set [2] is human colon cancer HCT-116. Description: Xenografted tumor of human colon cancer HCT-116 in nude mice. The format is in vivo, BALB/cA nude mice. The following applies: iv. On the procedure:
The diameter of subcutaneously xenografted tumor of the nude mice was measured by the caliper.

Data set [3] has as its system K562 human chronic myelogenous leukemia. The data set is described as follows: Subcutaneous tumor model of K562 human chronic myelogenous leukemia. The format is in vivo, NOD/SCID mice. As to conditions: 5 mg/kg; for Relative tumor volume (x ± SE) / Tumor volume (x ± SE): intravenous twice a week. On the procedure:
K562 cells were subcutaneously inoculated at the back of NOD/SCID mice right side so as to establish a subcutaneous xenograft animal model of human chronic myelogenous leukemia. When the average tumor volume reached 130 mm^3, the experiment mice were divided to different groups, with 8 mice for each group, and the drugs were administrated by intravenous injections twice a week. The effect was evaluated based on relative tumor proliferation ratio (T/C %).
Tumor cells were routinely passaged twice a week. Tumor cells in exponential growth phase were collected, then suspended in a mixture of PBS: matrigel with equal volume ratio and placed on ice for tumor inoculation.
5×10^6 K562 cells were subcutaneously inoculated at the back of experiment mice right side. The mice were monitored at regular intervals for the tumor growth. When tumor grew to average 130 mm^3, the mice were divided to groups randomly according to tumor volume and mouse body weight, and were administrated.
(§1) All of the operations relevant to operation, nursing and treatment in this investigation were conducted according to guidelines approved by Association for Assessment and Accreditation of Laboratory Animal Care (AAALAC). After the incoluation, the incidence of disease and death of animals were observed every day. In the process of daily observation, the effects of tumor growth on normal behavior of animals (such as exercise, feeding, drinking, body weight change, eyes, hair) as well as any other abnormality were attentively monitored. Death and clinical symptom were recorded for animals in each group.
The calculation formula for tumor volume is as follows: tumor volume (mm^3)=0.5×(long diameter of the tumor×short diameter of the tumor^2). RTV and T/C ratios were calculated according to the tumor volumes of the treatment groups and the control group. RTV refers to relative tumor volume. T/C ratio refers to the percentage value of the average tumor volumes between the treatment groups and the control group at a time point after the treatment, which reflects the anti-tumor effects of different treatment groups.
All the experiment results were expressed as the average tumor volume±SE (standard error). For statistical analysis, since the variances of relative tumor volume data were different, one-way analysis of variance (one-way ANOVA) and Dunnett T3 method for multiple comparisons were used to compare significant difference of relative tumor volumes between the groups. p<0.05 indicated the significant difference.

Data set [4] has as its system PC-3 human prostate cancer. Description: Subcutaneous tumor model of PC-3 human prostate cancer. The format is in vivo, Balb/c nude mouse. The following applies: 10 mg/kg; for Relative tumor volume (x ± SE): intravenous twice a week. On the procedure: PC-3 cells were subcutaneously inoculated at the right side on the back of Balb/c nude mouse so as to establish a subcutaneous xenograft animal model of human prostate cancer. When the average tumor volume reached 160 mm^3, the experiment mice were divided to different groups, with 8 mice for each group, and the drugs were administrated by intravenous injections twice a week. The therapeutic effect was evaluated based on relative tumor proliferation ratio (T/C %).
PC-3 cell line was cultured in vitro in Ham's F12K medium with supplement of 10% fetal calf serum and L-glutamine (2 mM) at 37° C. in an atmosphere with 5% CO2 for the tumor cells culture. The tumor cells were routinely passaged twice a week. Tumor cells in exponential growth phase were collected, then were suspended in a mixture of PBS: matrigel with equal volume ratio and were placed on ice for tumor inoculation.
5×10^6 PC-3 cells were subcutaneously inoculated at the right side on the back of experiment mice. The mice were monitored at regular intervals for the tumor growth. When tumor grew to average 160 mm^3, the mice were divided to groups randomly according to the tumor volume and the mouse body weight, and were administrated.
as §1
The calculation formula for tumor volume is as follows: tumor volume (mm^3)=0.5×(long diameter of the tumor×short diameter of the tumor^2). RTV and T/C ratios were calculated according to the tumor volumes of the treatment groups and the control group. RTV refers to relative tumor volume. T/C ratio refers to the percentage value of the relative tumor volumes of the treatment groups and the control group at a time point after the treatment, which reflects the anti-tumor effects of different treatment groups. At the end of the experiment, the pictures of the tumors were recorded according to the following two methods: 1. after euthanatized by CO2, the animals in each group were placed with tumor-bearing side up, and the pictures were taken and recorded respectively for each group; 2. after the tumor was removed, the tumor weight was weighed first. T/C (percentage value of the tumor weight between the treatment group and the control group) was calculated, and then the tumors from each group were placed in order. The pictures of the tumors were taken and recorded.
All the experiment results were expressed as average tumor volume±SE (standard error). For statistical analysis, one-way analysis of variance (one-way ANOVA) and LSD multiple comparisons method were used for the relative tumor volume data, comparing the significant difference of the relative tumor volumes between the groups. p<0.05 indicates the significant difference.

Data set [5] deals with human liver cancer plc/prf/5. The following applies: 10 mg/kg (based on rapamycin), i.v., Q2W × 2W.
Procedure: Plc/prf/5 cells were cultured in vitro in monolayer under conditions of MEM medium with supplement of 10% heat-inactivated fetal calf serum at 37° C. in an incubator at an atmosphere with 5% CO2. The cells were digested by using tyrisin-EDTA and passaged twice a week. Cells in exponential growth phase were collected, counted and used to inoculate.
1×10^7 plc/prf/5 tumor cells were suspended in 0.1 mL mixture (PBS: Matrigel=4:1), and were inoculated to the right scapula on the back of each NOD/SCID mouse. When the average tumor volume reached about 350 mm^3 at 24th days after the inoculation, the mice with undersized or oversized tumor volume were removed and the other mice were divided to groups randomly according to the tumor volume and then were administrated.

Where “and” joins values, the source holds several entries; their conditions need not be identical. Identical values can stand only once. Counter-ions that a name gives are not always drawn. Like-named read-outs stand apart in the source and are kept apart here. Marks after values point to notes of the source that are not given here.

On to `CCc1c2c(nc3ccc(OC(=O)N4CCC(N5CCCCC5)CC4)cc13)-c1cc3c(c(=O)n1C2)COC(=O)[C@]3(O)CC` [CPT-11, irinotecan hydrochloride], for which the “Body weight, Beginning” value in the data set on human colon cancer HT-29 (15 mg/kg, q3w × 3w) stood at 18.2 g; in the data set on human colon cancer HT-29 (45 mg/kg, qw × 3w), 18.6 g; in the data set with human lung cancer A549 (15 mg/kg, q3w × 3w), 18.1 g; in data set [1] (15 mg/kg, q3w × 3w) it was 18.9 g; in data set [1] (45 mg/kg, qw × 3w), 19.7 g. Moreover, the “Body weight, End” value in the data set with human colon cancer HT-29 (15 mg/kg, q3w × 3w) was determined as 16.0 g; in the data set with human colon cancer HT-29 (45 mg/kg, qw × 3w), 16.2 g; in data set [1] (15 mg/kg, q3w × 3w) it was 18.0 g; in data set [2] (15 mg/kg, q3w × 3w), 16.6 g; in data set [2] (45 mg/kg, qw × 3w), 15.1 g. Also, the “RTV (mean ± SD)” value in the data set on human colon cancer HT-29 (15 mg/kg, q3w × 3w) is on record as 3.79 ± 1.21*^,; with human colon cancer HT-29 (45 mg/kg, qw × 3w), 8.69 ± 3.43; in the data set on human lung cancer A549 (15 mg/kg, q3w × 3w) it was 7.67 ± 2.88**^,; with human lung cancer A549 (45 mg/kg, qw × 3w) it was 9.87 ± 4.87; in data set [1] (15 mg/kg, q3w × 3w) it was 7.39 ± 5.22**^,; in data set [1] (45 mg/kg, qw × 3w) it was 12.80 ± 3.91. In addition, the “RTV (mean ± SD)” value in data set [2] (15 mg/kg, q3w × 3w) worked out at 2.57 ± 0.66; in data set [2] (45 mg/kg, qw × 3w), 4.10 ± 0.73. Moreover, the T/C in the data set with human colon cancer HT-29 (15 mg/kg, q3w × 3w) is on record as 27.27%; in the data set on human colon cancer HT-29 (45 mg/kg, qw × 3w), 62.52%; in the data set with human lung cancer A549 (15 mg/kg, q3w × 3w), 53.26%; in the data set on human lung cancer A549 (45 mg/kg, qw × 3w) it was 68.54%; in data set [1] (15 mg/kg, q3w × 3w), 55.69%; in data set [1] (45 mg/kg, qw × 3w) it was 96.46%. For the same compound, the T/C in data set [2] (15 mg/kg, q3w × 3w) was found to be 39.84%; in data set [2] (45 mg/kg, qw × 3w), 63.56%. The “TV (mean ± SD) d0” value with human colon cancer HT-29 (15 mg/kg, q3w × 3w) was found to be 121 ± 14 mm^3; with human colon cancer HT-29 (45 mg/kg, qw × 3w), 116 ± 13 mm^3; in the data set with human lung cancer A549 (15 mg/kg, q3w × 3w), 112 ± 21 mm^3; with human lung cancer A549 (45 mg/kg, qw × 3w), 110 ± 15 mm^3; in data set [1] (15 mg/kg, q3w × 3w), 137 ± 33 mm^3; in data set [1] (45 mg/kg, qw × 3w) it was 136 ± 44 mm^3. The “TV (mean ± SD) d0” value turned out to be 129 ± 26 mm^3 in data set [2] (15 mg/kg, q3w × 3w) and 126 ± 25 mm^3 in data set [2] (45 mg/kg, qw × 3w). For the same compound, the “TV (mean ± SD) d28” value in the data set on human lung cancer A549 (15 mg/kg, q3w × 3w, d28) came out at 831 ± 305 mm^3; in data set [1] (15 mg/kg, q3w × 3w), 924 ± 443 mm^3; in data set [1] (45 mg/kg, qw × 3w), 1753 ± 878 mm^3; in data set [2] (15 mg/kg, q3w × 3w), 322 ± 37 mm^3; in data set [2] (45 mg/kg, qw × 3w) it was 512 ± 99 mm^3. Also, the “number of animals with vanished tumor” value in data set [1] (15 mg/kg, q3w × 3w) was determined as 0; in data set [1] (45 mg/kg, qw × 3w), 0.

With `Cc1nc(Nc2ncc(C(=O)Nc3c(C)cccc3Cl)s2)cc(N2CCN(CCO)CC2)n1` [dasatinib], the “T/C (relative tumor proliferation ratio)” value in data set [3] (14th day after the grouping, compared with the solvent control group) was 12.4%; in data set [4] (22nd day after grouping, compared with the solvent control group), 73%. The “Relative tumor volume (x ± SE)” value is listed as 226.9 ± 30.0 in data set [3] (14th day after the grouping), 289.1 ± 46.9 in data set [3] (21st day after grouping), 1148.9 ± 112.7 in data set [4] (22nd day after grouping) and 1235.3 ± 119.6 in data set [4] (25th day after grouping). The “Tumor volume (x ± SE)” value in data set [3] (14th day after the grouping) was 311 mm^3 and 311 ± 55 mm^3; in data set [3] (21st day after grouping), 391 mm^3 and 391 ± 79 mm^3.

Turning to “conjugate of Y shape PEG dipeptide of glutamic acid and glycine (number-average molecular weight of 40,000)-rapamycin [LPR-3]”, the “Delayed days of tumor growth (to 1000 mm^3)” value in data set [5] is recorded as over 7 days. For the same compound, the “Tumor proliferation rates T/C” value in data set [5] (compared with the solvent group, day 38 after the inoculation) was determined as 47%. Also, the “Tumor volume (average ± standard error)” value in data set [5] (day 24 after the inoculation (grouping)) was 358 ± 62 mm^3; in data set [5] (day 27 after the inoculation), 455 ± 85 mm^3; in data set [5] (day 31 after the inoculation), 569 ± 100 mm^3; in data set [5] (day 34 after the inoculation) it was 754 ± 151 mm^3; in data set [5] (day 38 after the inoculation) it was 848 ± 178 mm^3.
